This note sets out measurements from ChEMBL document CHEMBL3351868, “Structure-affinity relationships and pharmacological characterization of new alkyl-resorcinol cannabinoid receptor ligands: Identification of a dual cannabinoid receptor/TRPA1 channel agonist” (Bioorg Med Chem, 2014).

Assay [1] concerns the target Cannabinoid receptor 1 (Homo sapiens, UniProt P21554). Put plainly: Displacement of [3H]CP-55,940 from human recombinant CB1 receptor expressed in HEK293 cell membranes. (In general: In a radioligand displacement assay an active substance lowers the binding of a labelled ligand.)
The species entered for assay [2] is Homo sapiens. Put plainly: Selectivity index, ratio of Ki for human recombinant CB1 receptor to Ki for human recombinant CB2 receptor.
Assay [3] has as its target Cannabinoid receptor 2 (Homo sapiens, UniProt P34972). Put plainly: Displacement of [3H]CP-55,940 from human recombinant CB2 receptor expressed in HEK293 cell membranes.
For assay [4], the species on record is Homo sapiens. Put plainly: Selectivity index, ratio of Ki for human recombinant CB2 receptor to Ki for human recombinant CB1 receptor.

Chain of Cannabinoid receptor 2 (P34972 whole entry): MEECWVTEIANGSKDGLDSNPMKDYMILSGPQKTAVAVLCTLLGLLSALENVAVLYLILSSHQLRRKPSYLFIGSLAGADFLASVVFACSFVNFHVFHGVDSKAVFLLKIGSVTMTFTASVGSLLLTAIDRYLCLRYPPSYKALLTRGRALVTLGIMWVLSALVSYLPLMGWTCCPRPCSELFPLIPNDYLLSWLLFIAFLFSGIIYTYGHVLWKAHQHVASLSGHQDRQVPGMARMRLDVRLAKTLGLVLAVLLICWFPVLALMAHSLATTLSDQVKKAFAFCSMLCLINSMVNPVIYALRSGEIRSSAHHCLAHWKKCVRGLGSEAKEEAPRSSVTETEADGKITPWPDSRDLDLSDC
Chain of Cannabinoid receptor 1 (P21554 whole entry): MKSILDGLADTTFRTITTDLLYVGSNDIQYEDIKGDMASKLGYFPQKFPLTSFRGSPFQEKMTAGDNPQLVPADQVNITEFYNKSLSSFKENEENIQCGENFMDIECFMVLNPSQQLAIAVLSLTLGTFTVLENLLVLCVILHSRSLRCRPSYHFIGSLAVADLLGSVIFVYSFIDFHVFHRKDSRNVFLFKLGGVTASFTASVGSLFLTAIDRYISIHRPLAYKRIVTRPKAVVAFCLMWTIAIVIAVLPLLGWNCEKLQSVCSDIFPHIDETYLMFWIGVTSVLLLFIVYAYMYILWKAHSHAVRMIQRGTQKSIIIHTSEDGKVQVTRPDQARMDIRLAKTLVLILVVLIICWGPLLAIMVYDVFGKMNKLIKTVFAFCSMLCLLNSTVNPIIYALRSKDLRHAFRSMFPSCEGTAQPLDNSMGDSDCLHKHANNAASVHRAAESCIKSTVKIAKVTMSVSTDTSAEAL

A word on the Ki: it is a dissociation constant, usually derived from enzyme kinetics or from competition with a known ligand. Turning to `CCCCCCC(C)(C)c1cc(O)cc(OCCCCCCCCCCCNC(=O)C2CC2)c1`, the inhibition constant Ki was 2070 nM in assay [1] and 650 nM in assay [3]. The Ratio Ki in assay [2] was found to be 3.18; in assay [4] it was 0.31.
Regarding `CCCCCCC(C)(C)c1cc(O)cc(OCCCCCCCCCCC(=O)N[C@H](C)CO)c1`, the Ki in assay [1] was determined as 132 nM; in assay [3], 21.2 nM. In addition, the figures for the Ratio Ki in assay [2] and in assay [4] were 6.24 and 0.16, respectively.
For the molecule `CCCCCc1cc(O)cc(OCCCCCCCCCCC(=O)N[C@H](C)CO)c1`, the inhibition constant (Ki) came to 264 nM in assay [1] and 97.2 nM in assay [3]. For the same molecule, the values for the Ratio Ki in assay [2] and in assay [4] were 2.72 and 0.37, respectively.
As to `CCCCCCC(C)(C)c1cc(O)cc(OCCCCCCCC(=O)NC(CO)CO)c1`, the Ki in assay [1] turned out to be 178 nM; in assay [3], 815 nM. The figures for the Ratio Ki in assay [2] and in assay [4] were 0.22 and 4.6, respectively.
Consider `CCCCCc1cc(O)cc(OCCCCCCCC(=O)N[C@H](C)CO)c1`, for which the inhibition constant (Ki) is 12.8 nM in assay [1] and 119 nM in assay [3]. For the same molecule, the Ratio Ki in assay [2] was determined as 0.11; in assay [4] it was 9.32.
Regarding `CCCCCc1cc(O)cc(OCCCCCCCCCCCCNC2CC2)c1`, the values for the Ki in assay [1] and in assay [3] were 830 nM and above 10000 nM, respectively. In addition, the Ratio Ki was below 0.08 in assay [2] and above 12.1 in assay [4].
For the molecule `CCCCCCC(C)(C)c1cc(O)cc(OCCCCCCCCCCC(=O)NC23CC4CC(CC(C4)C2)C3)c1`, the Ki in assay [1] and in assay [3] was above 10000 nM in each case.
With `C=CCNCCCCCCCCCCCOc1cc(O)cc(CCCCC)c1`, the results for the Ki in assay [1] and in assay [3] were 1140 nM and 1850 nM, respectively. In addition, the values for the Ratio Ki in assay [2] and in assay [4] were 0.62 and 1.62, respectively.
Turning to `CCCCCc1cc(O)cc(OCCCCCCCCCCC(=O)NCc2ccccc2)c1`, the Ki in assay [1] was above 10000 nM; in assay [3] it was 202 nM. In addition, the Ratio Ki is above 49.5 in assay [2] and below 0.02 in assay [4].
For `CCCCCCC(C)(C)c1cc(O)cc(OCCCCCCCCCCC(=O)NC(CO)CO)c1`, the Ki is 1890 nM in assay [1] and 230 nM in assay [3]. The Ratio Ki in assay [2] came to 8.22; in assay [4], 0.12.
With `CCCCCc1cc(O)cc(OCCCCCCCCCCC(=O)NC23CC4CC(CC(C4)C2)C3)c1`, the Ki in assay [1] and in assay [3] was above 10000 nM throughout.
Regarding `C=CCNC(=O)CCCCCCCCCCOc1cc(O)cc(CCCCC)c1`, the figures for the Ki in assay [1] and in assay [3] were 136 nM and 16.4 nM, respectively. The Ratio Ki was 8.31 in assay [2] and 0.12 in assay [4].
With `CCCCCCc1c(O)cccc1OCCCCCCCCCCC(=O)NC12CC3CC(CC(C3)C1)C2`, the Ki in assay [1] and in assay [3] was above 10000 nM in each case.
Regarding `CCCCCCc1ccc(OCCCCCCCCCCC(=O)NC23CC4CC(CC(C4)C2)C3)cc1O`, the Ki in assay [1] and in assay [3] was above 10000 nM in each case.
On to `CCCCCCc1ccc(O)cc1OCCCCCCCCCCCNC(=O)C1CC1`, for which the Ki in assay [1] is 900 nM; in assay [3] it was 250 nM. Moreover, the Ratio Ki in assay [2] was 3.6; in assay [4], 0.28.
Taken in the same sequence, the figures for `CCCCCc1cc(O)cc(OCCCCCCCCCCCNCc2ccccc2)c1` were 1240 nM, 830 nM, 1.49 and 0.67.
Take `CCCCCCC(C)(C)c1cc(O)cc(OCCCCCCCC(=O)NC23CC4CC(CC(C4)C2)C3)c1`: the Ki in assay [1] and in assay [3] was above 10000 nM throughout.
Consider `CCCCCc1cc(O)cc(OCCCCCCCCCCCNC2CC2)c1`, for which the Ki in assay [1] came out at 2080 nM; in assay [3], 1890 nM. For the same molecule, the Ratio Ki came to 1.1 in assay [2] and 0.91 in assay [4].
As for `CCCCCc1cc(O)cc(OCCCCCCCCCCCNC(=O)C2CC2)c1`, the Ki turned out to be 2770 nM in assay [1] and 460 nM in assay [3]. The Ratio Ki stood at 6.02 in assay [2] and 0.17 in assay [4].
Consider `CCCCCCc1ccc(OCCCCCCCCCCC(=O)NC(CO)CO)cc1O`, for which the Ki in assay [1] and in assay [3] was above 10000 nM each time.
On to `CCCCCCc1ccc(OCCCCCCCCCCCNC(=O)C2CC2)cc1O`, for which the Ki in assay [1] and in assay [3] was above 10000 nM each time.
